Data on three molecules can be found in US10189803B2, “Synthesis of therapeutic and diagnostic drugs centered on regioselective and stereoselective ring opening of aziridinium ions” (ILLINOIS INSTITUTE OF TECHNOLOGY, priority 2008, dated 2019).

One data set concerns Hela cells. Put plainly: Antiproliferative activity, MTS assay, HeLa cells. Format: cell-based, Human. The note with it: Homo sapiens; 72 h incubation, MTS. Here is the method: (§1) Cell culture Human cervix HeLa cell line was obtained from ATCC (Rockville, Md.) and cultured in minimum essential medium (MEM) with L-glutamine (2 mM), Earle's BSS and sodium bicarbonate (1.5 g/L), supplemented with 10% fetal bovine serum (FBS), non-essential amino acids (0.1 mM), sodium pyruvate (1 mM) and antibiotic/antimycotic solution in a humidified atmosphere with 5% CO2 at 37° C. […] Lung fibroblast MRC-5 cell line was obtained from ATCC (Rockville, Md.) and cultured in ATCC formulated EMEM, supplemented with 10% fetal bovine serum (FBS) in a humidified atmosphere with 5% CO2 at 37° C.
(§2) Antiproliferative Activity. Cells were seeded onto 96-well plate at density of 2,000 cells for Hela cells or 5,000 cells for HT29 cells or 5,000 cells for MRC-5 per well in 0.1 mL complete medium and allowed to attach for 24 h. Varying concentrations of the test compounds in the final volume of 0.1 mL complete medium were then added in at least five series dilutions and incubated for 72 h. To measure cell proliferation, the Cell Titer 96 aqueous nonreactive cell proliferation assay (Promega Life Sciences, Madison, Wis.) was used according to the manufacturer's instructions. Briefly, MTS (2 mg/mL) and PMS (0.92 mg/ml) were mixed in a ratio of 20:1. An aliquot (20 μL) of the MTS/PMS mixture was added into each well, and the plate was incubated for 3 h at 37° C. Optical absorbance at 490 nm was then recorded with an enzyme-linked immunosorbent assay (ELISA) microtiter plate reader (Biotek). Each experiment was done at least in triplicate. Antiproliferative activity of the test compounds was expressed as the fraction of optical densities of treated the cells relative to the untreated solvent controls.^31 The data were plotted in GraphPad Prizm 3.0. Nonlinear regression analysis was used to determine IC50 values.
(§3) Cell culture. Human cervix HeLa cell line was obtained from ATCC (Rockville, Md.) and cultured in minimum essential medium (MEM) with L-glutamine (2 mM), Earle's BSS and sodium bicarbonate (1.5 g/L), supplemented with 10% fetal bovine serum (FBS), non-essential amino acids (0.1 mM), sodium pyruvate (1 mM) and antibiotic/antimycotic solution in a humidified atmosphere with 5% CO2 at 37° C.
as §2, with “activity.” for “Activity.”, “cells” for “cells or 5,000 cells for MRC-5”, “controls.” for “controls.^31”
Background: Tetrazolium assays rely on reduction of a dye to a coloured formazan, in cell work by metabolically active cells.

Another data set deals with HT29 cells. Put plainly: Antiproliferative activity, MTS assay, HT29 cells. The note with it: Homo sapiens, HT-29, 72 h incubation. Format: cell-based, Human. The method, then:
as §1, §2, §3
as §2, with “activity.” for “Activity.”, “cells” for “cells or 5,000 cells for MRC-5”, “controls.” for “controls.^31”

A short description of data set [1]: TEM measurement of self-assembled micelles. Type of data set: physicochemical. The note with it: aqueous solution. From the text:
Amphifacial cholic acid is a good targeting moiety, and its conjugation to MR contrast agent is expected to form helical globular aggregates with a favorable pharmacokinetic and relaxivity profile. In FIG. 41, cholic acid was converted to an activated amide 1, which was further reacted with a functionalized NE3TA (2) containing an amino group to provide Compound 3. The t-butyl group of Compound 3 was removed by treatment with 4M HCl in 1,4-dioxane to provide CA-NE3TA (4). […] The Gd(III) complex of CA-NE3TA was prepared as described above. Gd(CA-NE3TA) self-assembles into nano-sized micells as evidenced by TEM measurement (˜10 nm, FIG. 24). […] Aggregation of Gd(CA-NE3TA) as evidenced by TEM images is proposed to result from heating during the complexation reaction and/or gadolinium induced cross linking. T1 relaxivity of Gd(CA-NE3TA) in aqueous solution (0.2 mM) was measured to 10.85 mM^−1 s^−1. […] This increase in relaxivity may be a result of slower molecular rotation due to aggregation of the complex as evidenced by the TEM image.
TEM measurement. Stock solutions of compounds CA-NE3TA and Gd(CA-NE3TA) were prepared in 18 MΩ H2O and diluted to the final concentrations of CA-NE3TA (10 μM, pH=5) and Gd(CA-NE3TA) (100 μM or 10 μM, pH=7). In triplicate, a 5 μL aliquot of CA-NE3TA solution was placed on a gold-coated grid (300 mesh, formvar support film, Cat #FF300-Au, Electron Microscopy Sciences, PA). The sample on the grid was air-dried for 5-10 min after each deposition. The grid was air-dried overnight, transferred into a desiccator, and further dried in vacuo for 1.5 days. The sample of Gd(CA-NE3TA) (10 μM) was prepared as described above. […]
TEM images of CDCA-NE3TA indicate that the hydrophobic bile acid conjugated to NE3TA forms discrete semi-square micelles in nanometer size (˜15-60 nm, FIG. 29). […] Aza cholic acid 10 was prepared starting from the readily available cholic acid according to the literature. […]

The nature of data set [2]: T1 relaxivity of Gd(III) complexes (Bruker mq60 NMR analyzer). Format: physicochemical. The note with it: aqueous solution (0.2 mM). Here is the method: Gd(NE3TA) and Gd(NE3TA-Bn) were synthesized by reacting GdCl3 with NE3TA and NE3TA-Bn, respectively. NE3TA or NE3TA-Bn were mixed with GdCl3 in a molar ratio of 1 to 0.9, and the resulting mixture at pH 7 was heated to 90° C. and stirred until no free Gd(III) ions were detected using an ArsenazoIII (AAIII) assay. Relaxivity of the aqueous […] complexes (pH 7) was measured on a Bruker MQ60 NMR analyzer, and the concentration of the Gd(III) complexes was measured by ICP-MS. […] NE3TA was successfully conjugated with the most common bile acid, cholic acid (FIG. 41).
(§4) Relaxivity Measurements. Relaxivity measurements were acquired by taking the slope of a plot of 1/T1 (s^−1) versus concentration (mM). The longitudinal water proton relaxation times (T1) were determined using a Bruker mq60 NMR (Bruker Canada, Milton, ON, Canada) analyzer operating at 59.97 MHz and 37° C. The agent was added to Millipore water and serially diluted by 0.5 to give a series of 5 concentrations (500 μL total volume) for each relaxivity trial. The T1 was determined using an inversion recovery pulse sequence with 10 different pulse separations per sample, 4 repetitions per echo time, phase cycling, and a recycle delay that is ≥5 times the T1 of each given sample. All curves were fit using a monoexponential curve fitting formula.
Relaxivity of the aqueous Gd(III) complexes (˜pH 7) were measured on a Bruker MQ60 NMR analyzer, and the concentration of the Gd(III) complexes were measured by ICP-MS. […] As mentioned above, the on and off binding to Gd(III) of one of the pendant coordinates would have resulted enhanced relaxivity of Gd(C-NETA) compared to Gd(C-DOTA). Among the evaluated Gd(III) complexes, Gd(C-NE3TA) gives the highest T1 relaxivity at 60 MHz, probably due to increase in q. The relaxation rates for the Gd(III) chelates are dominated by the inner-sphere dipolar coupling between the coordinated water molecule and the paramagnetic Gd(III). The measured relaxivities arise from the exchange between the coordinated water molecule and the surrounding water molecules in solution. […] No indication of Gd(III) dissociation is evident from the relaxivity data, which is in agreement with the in vitro serum stability and in vivo biodistribution studies.
as §4, with “The T1 relaxivity was determined” for “The T1 was determined”

Structures are written as SMILES.

The IC50 is the concentration that inhibits the measured activity by half. A higher IC50 goes with weaker potency. Regarding `CC(CCC(=O)Nc1ccc(CC(CN2CCN(CC(=O)O)CCN(CC(=O)O)CC2)NCC(=O)O)cc1)C1CCC2C3C(O)CC4CC(O)CCC4(C)C3CC(O)C12C` (centres unmarked) [CA-NE3TA, [4-Carboxymethyl-7-(2-(carboxymethyl-amino)-3-{4-[4-(3,7,12-trihydroxy-10,13-dimethyl-hexadecahydro-cyclopenta[a]phenanthren-17-yl)-pentanoylamino]-phenyl}-propyl)-[1,4,7]triazonan-1-yl]-acetic acid], the values for the 50% inhibitory concentration (IC50) in the data set on Hela cells and in the data set with HT29 cells were 24 ± 2.7 µM and 8.3 ± 2.4 µM, respectively. The “micelle size (TEM)” value in data set [1] is recorded as 10-50 nm.

For `CC(CCC(=O)Nc1ccc(CC(CN2CCN(CC(=O)O)CCN(CC(=O)O)CC2)NCC(=O)O)cc1)C1CCC2C3C(O)CC4CC(O)CCC4(C)C3CCC12C` (centres unmarked) [CDCA-NE3TA, [4-Carboxymethyl-7-(2-(carboxymethyl-amino)-3-{4-[4-(3,7-dihydroxy-10,13-dimethylhexadecahydro-cyclopenta[a]phenanthren-17-yl)-pentanoylamino]-phenyl}-propyl)-[1,4,7]triazonan-1-yl]-acetic acid], the values for the IC50 in the data set with Hela cells and in the data set with HT29 cells were 24.6 ± 1 µM and 15.5 ± 3.2 µM, respectively. The “micelle size (TEM)” value in data set [1] is listed as 15-60 nm.

Molecule `CC(CCC(=O)Nc1ccc(CC(CN2CCN(CC(=O)O)CCN(CC(=O)O)CC2)NCC(=O)O)cc1)C1CCC2C3C(O)CC4CC(O)CCC4(C)C3CC(O)C12C.[Gd]` (centres unmarked) [Gd(CA-NE3TA)] returned a T1 relaxivity in data set [2] of 10.85 mM⁻¹ s⁻¹. Further, in data set [1], the “micelle size (TEM)” value is around 10 nm.
